Assay results from PubChem BioAssay (NCI).
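Test compounds were applied to cells in 96-well plates for 48 hours at 5 doses. The concentration for full growth arrest is given as TGI.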 Where a SMILES comes first, the peptide text is derived from it. [ ]: non-standard residue; d: D form. The star is where a group is joined. Iva = CC[C](C)(N)C(=O)O; Boc = CC(C)(C)OC(=O)*; X52 = C1CCC(=NO*)C1

Assays:
Assay in all cases: NCI tumour cell line growth inhibition, 48 h
[1] = tested on: HOP-18 NSCLC
[2] = tested on: LXFL 529 NSCLC
[3] = tested on: SR leukemia
[4] = tested on: XF 498 CNS
[5] = tested on: 786-0 renal
[6] = tested on: MDA-N
[7] = tested on: SF-539 CNS
[8] = tested on: M19-MEL melanoma
[9] = tested on: P388 leukemia
[10] = tested on: P388/ADR leukemia
[11] = tested on: SN12K1 renal

SMILES | TGI [1] [µM] | TGI [3] [µM] | TGI [4] [µM] | TGI [6] [µM] | TGI [7] [µM] | TGI [8] [µM] | also measured
COc1ccc(C2SCC(=O)N2NC(=O)c2ccncc2)cc1F (stereo not given) | > 100 | > 100 | > 100 | – | – | – | TGI [2]: > 100 µM
O=C(Nc1ccccc1)c1cc2ccccc2c(N=Nc2ccc([N+](=O)[O-])cc2)c1O | – | – | – | – | – | – | TGI [5]: > 100 µM
CCCCN1CN2C(=O)C(C(=O)OCC)C(=O)c3sc4nc(SC)nc1c4c32 (stereo not given) | – | 67 | – | 32.3 | 33.8 | – | –
CCC(C)(NC(=O)C(C)NC(=O)OC(C)(C)C)C(=O)NC(C)C(=O)NC(C)(CC)C(=O)ON=C1CCCC1 (stereo not given) (Boc-A[Iva]A[Iva]-X52; configuration not given here) | – | > 100 | – | > 100 | – | – | –
C1CSCCSCCSCCSC1 | – | – | – | > 100 | > 100 | – | –
CCCC[C@H]1[C@@H](OCOc2ccccc2)COC(=O)N1[C@H](C)c1ccccc1 | – | > 80.9 | – | 32.4 | – | – | –
O=[N+]([O-])c1ccc(N=Nc2c(O)ccc3ccccc23)c([N+](=O)[O-])c1 | – | > 100 | – | > 100 | – | – | TGI [5]: > 100 µM
CC(C)OP(=O)(OC(C)C)c1nc(-c2ccccc2)n(-c2ccc([N+](=O)[O-])cc2)n1 | – | – | > 100 | – | > 100 | > 100 | TGI [2]: > 100 µM
COc1cc2cc3c4cc(OC)c(OC)cc4cc[n+]3cc2cc1OC | > 100 | – | > 100 | – | > 100 | > 100 | TGI [9]: > 100 µM; TGI [10]: > 100 µM; TGI [11]: > 100 µM
O=P1(Oc2ccc(Cl)cc2Cl)Oc2ccc3ccccc3c2-c2c(ccc3ccccc23)O1 | > 100 | – | 56.7 | – | 43 | 47.9 | TGI [9]: > 100 µM; TGI [10]: > 100 µM; TGI [11]: 43.1 µM
